In US20230192631A1, “Biphenyl Derivatives” (Hoffmann-La Roche Inc., priority 2020, published 2023):

What follows are compounds tested against T1, human cGAS (residues 161-522) (Homo sapiens, UniProt Q8N884) (assay: Malachite Green assay to measure cGAS activity). Settings: coupled enzymatic assay, phosphate detection by Malachite Green; 25 nM cGAS, 80 μM ATP, 80 μM GTP, 100 nM ISD, 4 hour at RT.
T1 construct: Recombinantly expressed purified human cGAS (residues 161-522) was used at 25 nM; made in house
T1 sequence (Q8N884 161-522): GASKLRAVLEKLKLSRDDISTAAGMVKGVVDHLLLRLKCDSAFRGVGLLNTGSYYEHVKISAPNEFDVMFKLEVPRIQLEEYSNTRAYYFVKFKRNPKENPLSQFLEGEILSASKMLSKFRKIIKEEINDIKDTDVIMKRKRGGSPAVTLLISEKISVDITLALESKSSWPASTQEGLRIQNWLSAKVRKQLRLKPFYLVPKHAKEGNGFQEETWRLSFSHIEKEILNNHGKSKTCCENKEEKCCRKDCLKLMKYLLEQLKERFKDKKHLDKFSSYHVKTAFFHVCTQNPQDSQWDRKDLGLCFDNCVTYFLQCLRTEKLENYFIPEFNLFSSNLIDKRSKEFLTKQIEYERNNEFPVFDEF
Assay type: biochemical
Method: Compounds were tested for cGAS inhibition in a coupled enzymatic assay based on Phosphate detection by Malachite Green. Final assay conditions were 20 mM TRIS pH 7.5 (Applichem), 5 mM MgCl2 (Sigma) and 0.01% BSA (Sigma) supplemented with 80 μM ATP (Sigma), 80 μM GTP (Sigma) and 100 nM Interferon Stimulating DNA (ISD) (Microsynth). Recombinantly expressed purified human cGAS (residues 161-522) was used at 25 nM.
All compounds were prepared as 10 mM stock solutions in DMSO and a 16 pt dilution series in DMSO with a dilution factor of 2.5 was prepared. 1 μL of DMSO dilution series was transferred to 32.3 μL reaction buffer, mixed by pipetting up/down, spun for 1 minute at 3000 rpm and was visually inspected for precipitation. 5 μL of 3-fold enzyme stock solution were transferred to an empty 384-well Black/Clear Flat Bottom Polystyrene NBS (Corning) rows 3-24. Rows 1-2 were filled with assay buffer. Plates were spun 10 seconds at 1000 rpm (164×g). 5 μL of compound intermediate dilution was added and mixed by pipetting up/down to rows 3-24. Rows 1-2 were filled with 3.1% DMSO assay buffer. Plates were spun 10 seconds at 1000 rpm (164×g). 5 μL 3-fold Nucleotide/DNA mix was added to all wells to start the reaction. Plates were spun 10 seconds at 1000 rpm (164×g) and incubated for 4 hour at room temperature (RT) in the dark. 5 μL 4 U/mL PPase (Sigma) were added to all wells. Plates spun 10 seconds at 1000 rpm (164×g). 10 μL BioMol green Solution (Enzo Life Sciences) was added to all wells. Plates spun 10 seconds at 1000 rpm (164×g) and incubated 30 minutes at RT in the dark. Absorbance data was collected 620 nm on an EnVision Multilable Reader (Perkin Elmer) and the following measurement settings were used: excitation filter photometric was 620 nm; excitation from the top; measurement height was 1 mm; number of flashes was 30; number of flashes integrated was 1.
All plates are checked for abnormalities and outliers in the Blank Control (no protein, row 1) and the Neutral Control (no compound, row 2) are excluded using the 3*SD rule. Data was normalized to 0 and 100% by Blank and Neutral Control and each curve was fitted and judged using the 4 parameter logistic equation to determine the IC50 for cGAS inhibition.
Table 1 provides IC50 values (μM) for cGAS inhibition obtained for particular examples of the present invention as measured by the above-described assay.
In the case of `Cc1ccc(-c2ccc(NC(=O)Cn3cncn3)c(C(=O)O)c2)c(Cl)c1` [Example 1, 4-(2-(1H-1,2,4-Triazol-1-yl)acetamido)-2′-chloro-4′-methyl-[1,1′-biphenyl]-3-carboxylic Acid], the IC50 is reported as 1830 nM.
`Cc1ccc(-c2ccc(NC(=O)Cc3cnc(C)[nH]c3=O)c(C(=O)O)c2)c(Cl)c1` [Example 2, 2′-Chloro-4′-methyl-4-(2-(2-methyl-6-oxo-1,6-dihydropyrimidin-5-yl)acetamido)-[1,1′-biphenyl]-3-carboxylic Acid] showed an IC50 of 2090 nM.
Compound `Cc1ccc(-c2ccc(NC(=O)CCN3CCOCC3)c(C(=O)O)c2)c(Cl)c1` [Example 3, 2′-Chloro-4′-methyl-4-(3-morpholinopropanamido)-[1,1′-biphenyl]-3-carboxylic Acid] has an IC50 of 4820 nM.
Compound `Cc1ccc(-c2ccc(NC(=O)CN3CCOCC3)c(C(=O)O)c2)c(Cl)c1` [Example 4, 5-(2-Chloro-4-methylphenyl)-2-[(2-morpholin-4-ylacetyl)amino]benzoic Acid] has an IC50 of 320 nM.
`Cc1ccc(-c2ccc(NC(=O)Cc3ccccc3)c(C(=O)O)c2)c(Cl)c1` [Example 5, 5-(2-Chloro-4-methylphenyl)-2-[(2-phenylacetyl)amino]benzoic Acid] was tested, and the IC50 was 3070 nM.
`Cc1ccc(-c2ccc(OCCn3ccnc3)c(C(=O)O)c2)c(Cl)c1` [Example 6, 5-(2-Chloro-4-methylphenyl)-2-(2-imidazol-1-ylethoxy)benzoic Acid] showed an IC50 of 2800 nM.
`Cc1ccc(-c2ccc(OCCN3CCS(=O)(=O)CC3)c(C(=O)O)c2)c(Cl)c1` [Example 7, 5-(2-Chloro-4-methylphenyl)-2-[2-(1,1-dioxo-1,4-thiazinan-4-yl)ethoxy]benzoic Acid] showed an IC50 of 2670 nM.
Compound `Cc1ccc(-c2ccc(OCc3ccccc3)c(C(=O)O)c2)c(Cl)c1` [Example 8, 5-(2-Chloro-4-methylphenyl)-2-phenylmethoxybenzoic Acid] has an IC50 of 4210 nM.
